Test results reported in ChEMBL document CHEMBL1150681, “New acetylenic acids from the marine sponge Stelletta species” (2003).
Converted amounts (≈) assume the structure as drawn.

Key:
Format in all cases: functional
Conditions in all cases: read-out: ED50 (the source's name)
A549 = test: Cytotoxicity against human A549 cells
SK-OV-3 = test: Cytotoxicity against human SKOV3 cells
SK-MEL-2 = test: Cytotoxicity against human SK-MEL-2 cells
XF498 = test: Cytotoxicity against human XF498 cells
HCT-15 = test: Cytotoxicity against human HCT15 cells

`COc1cccc2c1C(=O)c1c(O)c3c(c(O)c1C2=O)C[C@@](O)(C(=O)CO)C[C@@H]3O[C@H]1C[C@H](N)[C@H](O)[C@H](C)O1` [DOXORUBICIN] showed an EC50 (A549) of 0.03 µg/mL (≈ 0.0552 µM), an EC50 (SK-OV-3) of 0.15 µg/mL (≈ 0.276 µM) and an EC50 (SK-MEL-2) of 0.03 µg/mL (≈ 0.0552 µM). The EC50 (XF498) was 0.15 µg/mL (≈ 0.276 µM) and the EC50 (HCT-15) was 0.07 µg/mL (≈ 0.129 µM).
